Experimental data reported in US20200060276A1, “THIAZOLE COMPOUND AND HERBICIDE” (OAT Agrio Co., Ltd., priority 2017, published 2020).

Key:
Format in all cases: in vivo
[1] = system: Echinochloa crus-galli (L.) P. Beauv. var. formosensis Ohwi; test: Test for Herbicidal Effect in Flooding Treatment (#2), ECHDG at 2-2.5 leaf stage; settings: flooding treatment at 2-2.5 leaf stage, dose 0.2 kg/ha, visual observation on day 21
How it was run: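 Flooded muddy soil was seeded with the weed, and at 2–2.5 leaf stage compound in acetone/Tween 80 water was dropped on the water surface at 0.2 kg/ha. Plants were kept in a glasshouse and scored visually on day 21 from 0 (<10% growth inhibition) to 5 (≥90% or complete withering).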

[2] = system: Cyperus microiria; test: Test for Herbicidal Effect in Flooding Treatment (#1), CYMIC; settings: flooding treatment at seeding, dose 2 kg/ha, visual observation on day 21
How it was run: (§1)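 Visual scores from 0 (<10% inhibition) to 5 (≥90% or complete withering) were taken 21 days after treatment of glasshouse-grown plants. Seeds were sown in soil flooded for 24 h beforehand, and compound was applied dropwise onto the surface at 2 kg/ha as an acetone solution diluted in water with Tween 80.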

[3] = system: Echinochloa crus-galli (L.) P. Beauv. var. formosensis Ohwi; test: Test for Herbicidal Effect in Flooding Treatment (#1), ECHDG; settings: flooding treatment at seeding, dose 2 kg/ha, visual observation on day 21
How it was run: as §1

[4] = system: Monochoria vaginalis; test: Test for Herbicidal Effect in Flooding Treatment (#1), MONVA; settings: flooding treatment at seeding, dose 2 kg/ha, visual observation on day 21
How it was run: as §1

[5] = system: Scirpus juncoides; test: Test for Herbicidal Effect in Flooding Treatment (#1), SCIJU; settings: flooding treatment at seeding, dose 2 kg/ha, visual observation on day 21
How it was run: as §1

Row | SMILES | ECHDG (2-2.5L) #2 herbicidal effect (growth inhibition grade) [1] | CYMIC #1 herbicidal effect (growth inhibition grade) [2] | ECHDG #1 herbicidal effect (growth inhibition grade) [3] | MONVA #1 herbicidal effect (growth inhibition grade) [4] | SCIJU #1 herbicidal effect (growth inhibition grade) [5]
1 | CCOc1c(F)ccc(CS(=O)(=O)c2ncc(Cl)s2)c1F [Compound 1C-81] | 5 (Growth inhibition effect is equal to or greater than 90%, or complete withering is achieved) | 5 (Growth inhibition effect is equal to or greater than 90%, or complete withering is achieved) | 5 (Growth inhibition effect is equal to or greater than 90%, or complete withering is achieved) | 5 (Growth inhibition effect is equal to or greater than 90%, or complete withering is achieved) | 5 (Growth inhibition effect is equal to or greater than 90%, or complete withering is achieved)
2 | CCOc1ccc(F)c(CS(=O)(=O)c2ncc(Cl)s2)c1F [Compound 1C-82] | 5 (Growth inhibition effect is equal to or greater than 90%, or complete withering is achieved) | 5 (Growth inhibition effect is equal to or greater than 90%, or complete withering is achieved) | 5 (Growth inhibition effect is equal to or greater than 90%, or complete withering is achieved) | 5 (Growth inhibition effect is equal to or greater than 90%, or complete withering is achieved) | 5 (Growth inhibition effect is equal to or greater than 90%, or complete withering is achieved)
3 | CCOc1cc(CS(=O)(=O)c2ncc(Cl)s2)cc(F)c1F [Compound 1C-83] | 4 (Growth inhibition effect is equal to or greater than 70%, and less than 90%) | 5 (Growth inhibition effect is equal to or greater than 90%, or complete withering is achieved) | 5 (Growth inhibition effect is equal to or greater than 90%, or complete withering is achieved) | 5 (Growth inhibition effect is equal to or greater than 90%, or complete withering is achieved) | 5 (Growth inhibition effect is equal to or greater than 90%, or complete withering is achieved)
4 | COc1ccc(CS(=O)(=O)c2ncc(Cl)s2)c(F)c1 [Compound 1C-88] | 4 (Growth inhibition effect is equal to or greater than 70%, and less than 90%) | 5 (Growth inhibition effect is equal to or greater than 90%, or complete withering is achieved) | 5 (Growth inhibition effect is equal to or greater than 90%, or complete withering is achieved) | 5 (Growth inhibition effect is equal to or greater than 90%, or complete withering is achieved) | 5 (Growth inhibition effect is equal to or greater than 90%, or complete withering is achieved)
5 | COc1cc(Cl)c(CS(=O)(=O)c2ncc(Cl)s2)c(Cl)c1 [Compound 1C-91] | 5 (Growth inhibition effect is equal to or greater than 90%, or complete withering is achieved) | 5 (Growth inhibition effect is equal to or greater than 90%, or complete withering is achieved) | 5 (Growth inhibition effect is equal to or greater than 90%, or complete withering is achieved) | 5 (Growth inhibition effect is equal to or greater than 90%, or complete withering is achieved) | 5 (Growth inhibition effect is equal to or greater than 90%, or complete withering is achieved)
6 | CCOc1ccc(CS(=O)(=O)c2ncc(Cl)s2)c(C)c1 [Compound 1C-93] | 5 (Growth inhibition effect is equal to or greater than 90%, or complete withering is achieved) | 5 (Growth inhibition effect is equal to or greater than 90%, or complete withering is achieved) | 5 (Growth inhibition effect is equal to or greater than 90%, or complete withering is achieved) | 5 (Growth inhibition effect is equal to or greater than 90%, or complete withering is achieved) | 5 (Growth inhibition effect is equal to or greater than 90%, or complete withering is achieved)
7 | CCOc1ccc(CS(=O)(=O)c2ncc(Cl)s2)c(C(F)(F)F)c1 [Compound 1C-94] | 5 (Growth inhibition effect is equal to or greater than 90%, or complete withering is achieved) | 5 (Growth inhibition effect is equal to or greater than 90%, or complete withering is achieved) | 5 (Growth inhibition effect is equal to or greater than 90%, or complete withering is achieved) | 5 (Growth inhibition effect is equal to or greater than 90%, or complete withering is achieved) | 5 (Growth inhibition effect is equal to or greater than 90%, or complete withering is achieved)
8 | CCOc1ccc(CS(=O)(=O)c2ncc(Cl)s2)cc1C(F)(F)F [Compound 1C-98] | 1 (Growth inhibition effect is equal to or greater than 10%, and less than 30%) | 5 (Growth inhibition effect is equal to or greater than 90%, or complete withering is achieved) | 5 (Growth inhibition effect is equal to or greater than 90%, or complete withering is achieved) | 5 (Growth inhibition effect is equal to or greater than 90%, or complete withering is achieved) | 5 (Growth inhibition effect is equal to or greater than 90%, or complete withering is achieved)
9 | CCOc1ccc(CS(=O)(=O)c2ncc(Cl)s2)c(F)c1F [Compound 1C-99] | 5 (Growth inhibition effect is equal to or greater than 90%, or complete withering is achieved) | 5 (Growth inhibition effect is equal to or greater than 90%, or complete withering is achieved) | 5 (Growth inhibition effect is equal to or greater than 90%, or complete withering is achieved) | 5 (Growth inhibition effect is equal to or greater than 90%, or complete withering is achieved) | 5 (Growth inhibition effect is equal to or greater than 90%, or complete withering is achieved)
10 | CCOc1ccc(CS(=O)(=O)c2ncc(Cl)s2)c(Cl)c1Cl [Compound 1C-100] | 5 (Growth inhibition effect is equal to or greater than 90%, or complete withering is achieved) | 5 (Growth inhibition effect is equal to or greater than 90%, or complete withering is achieved) | 5 (Growth inhibition effect is equal to or greater than 90%, or complete withering is achieved) | 5 (Growth inhibition effect is equal to or greater than 90%, or complete withering is achieved) | 5 (Growth inhibition effect is equal to or greater than 90%, or complete withering is achieved)
11 | CCOc1c(F)cc(CS(=O)(=O)c2ncc(Cl)s2)cc1F [Compound 1C-104] | 1 (Growth inhibition effect is equal to or greater than 10%, and less than 30%) | 5 (Growth inhibition effect is equal to or greater than 90%, or complete withering is achieved) | 5 (Growth inhibition effect is equal to or greater than 90%, or complete withering is achieved) | 5 (Growth inhibition effect is equal to or greater than 90%, or complete withering is achieved) | 5 (Growth inhibition effect is equal to or greater than 90%, or complete withering is achieved)
12 | CCOc1c(F)cc(CS(=O)(=O)c2ncc(Cl)s2)cc1Cl [Compound 1C-105] | 2 (Growth inhibition effect is equal to or greater than 30%, and less than 50%) | 5 (Growth inhibition effect is equal to or greater than 90%, or complete withering is achieved) | 5 (Growth inhibition effect is equal to or greater than 90%, or complete withering is achieved) | 5 (Growth inhibition effect is equal to or greater than 90%, or complete withering is achieved) | 5 (Growth inhibition effect is equal to or greater than 90%, or complete withering is achieved)
